Values quoted from earlier work, collected in patent US9636319B1, “Fumarate ester dosage forms” (priority 2015, dated 2017).
Counter-ions that a name gives are not always drawn.

Columns and labels:
[1] = system: Nuclear factor (erythroid-derived 2)-like 2 (Nrf2) pathway; conditions: in vitro and in vivo in animals and humans
Human plasma protein = conditions: independent of concentration

Compound	quantifiability in plasma following oral administration (human, in vivo, po)	Nrf2 pathway activation [1]	Human plasma protein binding (Human plasma protein)	Tmax without meal (MMF in plasma, before the delay by a meal) [h]	Tmax with meal (MMF in plasma, high-fat, high-calorie meal) [h]	median Tmax of MMF ([…]) [h]	dose dependence of Cmax and AUCoverall (dose range 120 mg to 360 mg)	reduction in the incidence of flushing (fed / postprandial state)	effect of a meal on AUC (high-fat, high-calorie meal)	decrease of Cmax by a meal (high-fat, high-calorie meal, MMF in plasma) [%]	circulating MMF at 24 hours (human, in vivo)	terminal half-life (human, in vivo)	involvement of the cytochrome P450 (CYP) system in metabolism (metabolism through the tricarboxylic acid (TCA) cycle)
COC(=O)/C=C/C(=O)OC [DMF, dimethyl fumarate]	not quantifiable	activate											
COC(=O)/C=C/C(=O)O [MMF, monomethyl fumarate]			27-45%	2.0	5.5	2 to 2.5	increased approximately dose proportionally	approximately 25%	did not affect	40	no circulating MMF is present at 24 hours in the majority of individuals	approximately 1 hour	no involvement
